Measured values reported in US9328324B2, “System, method and devices for tissue-based diagnosis” (The Regents of the University of California, priority 2009, dated 2016).

experiment: Preservation of bioactivity of solubilized tissue constituents under ultrasonic energy exposure; settings: 1% w/v in LPM

| preservation of bioactivity of solubilized proteins and nucleic acids | SMILES |
| --- | --- |
| complete preservation | CCCCCCCCCCCCOCCOCCOCCOCCO [Brij 30, polyethylene glycol dodecyl ether] |
| complete preservation | CCCCCCCCCC[N+](C)(C)CCCS(=O)(=O)[O-] [DPS, 3-(decyldimethylammonio) propane sulfonate] |
| complete preservation | CCCCCCCCCCCC(=O)N(C)CC(=O)O [NLS, N-lauroyl sarcosine] |
